One molecule from patent US9394268B2, “(E)-1-(5-methoxy-2,2-dimethyl-2H-chromen-8-yl)-3-(4-methoxyphenyl)prop-2-en-1-one and analogs thereof, as well as preparation method and use thereof” (Sichuan University, priority 2012, dated 2016) can be followed below.

SMILES strings stand for the structures.

The test system of one assay is K562. Nature of the assay: Cell proliferative assay (MTT), K562. Type of assay: cell-based. Conditions: Homo sapiens, 72 h incubation, read-out: IC50s K562. The method in brief:
(§1)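 MTT read at 590 nm after 72 h compound exposure; cells pre-incubated 24 h post-seeding. IC50 = mean±SEM from dose-response curves, n≥3 independent experiments.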

A further assay deals with tumor cells. Nature of the assay: Cell proliferative assay (MTT), summary over tumor cells. Conditions: summary in words of Table 1; colon, liver, leukemia lines. Type of assay: cell-based. As for the experimental part:
The synthesized compounds were evaluated for their cytotoxin activity against suspended tumor cells. These cells were seeded on 96-well plates and incubated for 24 h. Selected compounds were added at various doses and incubated for 72 h, MTT was then added, and the absorbance was measured at a wavelength of 590 nm. IC50 values are expressed as the mean±SEM from the dose-response curves of at least three independent experiments.

Another assay deals with SW620. Nature of the assay: Cell proliferative assay (MTT), SW620. Type of assay: cell-based. To be noted: Homo sapiens, SW-620, 72 h incubation, read-out: IC50s SW620. The method in brief: as §1
The test system of another assay is SPC-A1 cells. Nature of the assay: Human lung cancer SPC-A1 xenograft. Type of assay: in vivo, Balb/c nude mice. To be noted: 10, 20 mg/kg intravenous every three days for eight times; vs vehicle control. As for the experimental part: (4) In Vivo Anti-Tumor Activity of SKLBC-9 on Human Lung Cancer SPC-A1 Xenograft
Six-week-old Balb/c nude mice were obtained from Chinese Academy of Medical Science (Beijing, China). SPC-A1 cells (5×10^6 in 100 μl saline) were injected subcutaneously into the right flanks of the mice. 14 days after cell injection, forty mice were selected and randomly divided into four groups including control, cisplatin (1.5 mg/kg) and SKLBC-9 (10, 20 mg/kg). The animals were intravenously injected with SKLBC-9 or vehicle every three days for eight times. Tumor burden and animal body weight was measured every 2 or 3 days. The survival rate was also recorded. After treatment, mice were killed and tumors were collected and weighted.
(In general: In xenograft studies the graft and the host belong to different species.)

In a further assay the test system is HCT116. Nature of the assay: Cell proliferative assay (MTT), HCT116. Type of assay: cell-based. Conditions: Homo sapiens, HCT-116, 72 h incubation, read-out: IC50s HCT116. The method in brief: as §1
For a further assay, the system named is HepG2. Nature of the assay: Cell proliferative assay (MTT), HepG2. It is filed as cell-based. To be noted: Homo sapiens, 72 h incubation, read-out: IC50s HepG2. Summed up: as §1
In another assay the test system is HT29. The experiment in a line: Cell proliferative assay (MTT), HT29. Type of assay: cell-based. Conditions: Homo sapiens, HT-29, 72 h incubation, read-out: IC50s HT29. Summed up: as §1
A further assay has as its system A549 cells. The experiment in a line: Human lung cancer A549 xenograft. It is filed as in vivo, Balbc mice. Conditions: 5, 10 and 20 mg/kg intravenous once three days for eight times; vs control P<0.01. As to the method: (3) In Vivo Anti-Tumor Activity of SKLBC-9 on Human Lung Cancer A549 Xenograft
Six-week-old female mice were obtained from Chinese Academy of Medical Science (Beijing, China). A549 cells (5×10^6 in 100 μl saline) were injected subcutaneously into the right flanks of Balbc mice. When the tumor reached about 100 mm^3, mice were selected and randomly divided into five groups including control, cisplatin (1.5 mg/kg) and SKLBC-9 (5,10,20 mg/kg). The animals were intravenous injection with SKLBC-9 (5, 10 and 20 mg/kg) or vehicle once three days for eight times. Tumor burden was measured every 2 or 3 days with a caliper (calculated volume [mm^3]=n/6× length×width×width). After treatment, mice were killed and tumors were collected and weighted.

Regarding `COc1ccc(C(=O)/C=C/c2ccc(N(C)C)cc2)c2c1C=CC(C)(C)O2` [SKLBC-9, (E)-3-(4-(dimethylamino)phenyl)-1-(5-methoxy-2,2-dimethyl-2H-chromen-8-yl)prop-2-en-1-one], the IC50 in the assay with K562 was 3.5 µM; in the assay on SW620, 570 nM; with HCT116 it was 1630 nM; with HepG2, 730 nM; in the assay with HT29, 1870 nM. Besides, the “inhibitory activity against tumor cells” value in the assay on tumor cells is “better inhibitory activity”. Besides, the average tumor weight entry in the assay on SPC-A1 cells is recorded as “significantly lower”. The growth of tumor entry in the assay with SPC-A1 cells is given as “significantly inhibited”. The tumor growth entry with A549 cells was “suppress tumor growth”.
